Assay results taken from article PMC11423540, “Synthesis and biological evaluation of ortho-phenyl phenylhydroxamic acids containing phenothiazine with improved selectivity for class IIa histone deacetylases” (Journal of Enzyme Inhibition and Medicinal Chemistry, 2024).
Read-outs that look alike come from different tables or passages of the source.

Assays:
[1] = system: SCC2095 cells; experiment: Cell viability (MTT) assay, SCC2095; type: cell-based; conditions: 48 h, human oral cancer cells, read-out: IC50 of cytotoxicity SCC2095
Procedure: Human breast cancer MDA-MB-231 cells and gastric cancer SCM-1 cells were purchased from the American Type Culture Collection (Manasas, VA, USA). SCC2095 human oral cancer cells were kindly provided by Professor Susan R. Mallery (The Ohio State University).
To assess cell viability, cells were seeded in three replicates into 96-well plates at a density of 5×10^3/well for 24 h following incubation with compounds at the indicated concentrations. Then, cell viability was assessed with 3–(4,5-dimethylthiazol-2-yl)-2,5-diphenyltetrazolium bromide (MTT) solution (0.5 mg/mL) for 4h as described previously. After removing the medium, 200 µL of DMSO was added, and then the absorbance was measured at 570 nm using a plate reader (BMG LABTECH, Germany).

[2] = molecular target: HDAC4 (Homo sapiens, UniProt P56524); experiment: HDAC inhibition assay, HDAC4
[3] = molecular target: T1, HDAC7 (Homo sapiens, UniProt Q8WUI4); experiment: HDAC inhibition assay, HDAC7
T1 sequence (Q8WUI4 1-952): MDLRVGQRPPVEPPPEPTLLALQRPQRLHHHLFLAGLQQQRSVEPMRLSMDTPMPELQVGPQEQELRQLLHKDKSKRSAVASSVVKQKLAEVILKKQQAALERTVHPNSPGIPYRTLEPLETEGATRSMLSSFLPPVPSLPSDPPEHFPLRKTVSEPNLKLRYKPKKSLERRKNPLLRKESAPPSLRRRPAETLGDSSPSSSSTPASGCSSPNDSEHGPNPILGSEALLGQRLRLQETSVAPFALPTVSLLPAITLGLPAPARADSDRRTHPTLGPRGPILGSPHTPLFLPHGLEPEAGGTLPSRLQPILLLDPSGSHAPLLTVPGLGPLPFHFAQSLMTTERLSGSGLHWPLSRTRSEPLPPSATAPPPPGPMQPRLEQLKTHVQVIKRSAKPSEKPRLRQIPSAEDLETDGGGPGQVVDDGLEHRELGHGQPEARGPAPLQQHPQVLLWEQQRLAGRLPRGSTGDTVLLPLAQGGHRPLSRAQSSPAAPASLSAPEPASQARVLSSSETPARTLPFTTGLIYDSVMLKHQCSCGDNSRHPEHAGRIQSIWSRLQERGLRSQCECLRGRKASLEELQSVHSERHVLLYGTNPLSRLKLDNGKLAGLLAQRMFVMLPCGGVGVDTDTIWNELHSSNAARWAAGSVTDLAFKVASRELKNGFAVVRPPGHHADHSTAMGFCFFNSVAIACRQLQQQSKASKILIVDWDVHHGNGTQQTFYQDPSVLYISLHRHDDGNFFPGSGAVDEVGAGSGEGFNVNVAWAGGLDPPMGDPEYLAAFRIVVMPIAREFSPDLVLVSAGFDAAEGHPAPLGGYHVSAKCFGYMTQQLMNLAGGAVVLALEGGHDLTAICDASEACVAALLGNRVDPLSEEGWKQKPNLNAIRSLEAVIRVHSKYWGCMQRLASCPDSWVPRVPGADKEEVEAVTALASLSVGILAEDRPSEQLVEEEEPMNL

[4] = molecular target: HDAC9 (Homo sapiens, UniProt Q9UKV0); experiment: HDAC inhibition assay, HDAC9
[5] = molecular target: T2, HDAC6 (Homo sapiens, UniProt Q9UBN7); experiment: HDAC inhibition assay, HDAC6
T2 sequence (Q9UBN7 1-1215): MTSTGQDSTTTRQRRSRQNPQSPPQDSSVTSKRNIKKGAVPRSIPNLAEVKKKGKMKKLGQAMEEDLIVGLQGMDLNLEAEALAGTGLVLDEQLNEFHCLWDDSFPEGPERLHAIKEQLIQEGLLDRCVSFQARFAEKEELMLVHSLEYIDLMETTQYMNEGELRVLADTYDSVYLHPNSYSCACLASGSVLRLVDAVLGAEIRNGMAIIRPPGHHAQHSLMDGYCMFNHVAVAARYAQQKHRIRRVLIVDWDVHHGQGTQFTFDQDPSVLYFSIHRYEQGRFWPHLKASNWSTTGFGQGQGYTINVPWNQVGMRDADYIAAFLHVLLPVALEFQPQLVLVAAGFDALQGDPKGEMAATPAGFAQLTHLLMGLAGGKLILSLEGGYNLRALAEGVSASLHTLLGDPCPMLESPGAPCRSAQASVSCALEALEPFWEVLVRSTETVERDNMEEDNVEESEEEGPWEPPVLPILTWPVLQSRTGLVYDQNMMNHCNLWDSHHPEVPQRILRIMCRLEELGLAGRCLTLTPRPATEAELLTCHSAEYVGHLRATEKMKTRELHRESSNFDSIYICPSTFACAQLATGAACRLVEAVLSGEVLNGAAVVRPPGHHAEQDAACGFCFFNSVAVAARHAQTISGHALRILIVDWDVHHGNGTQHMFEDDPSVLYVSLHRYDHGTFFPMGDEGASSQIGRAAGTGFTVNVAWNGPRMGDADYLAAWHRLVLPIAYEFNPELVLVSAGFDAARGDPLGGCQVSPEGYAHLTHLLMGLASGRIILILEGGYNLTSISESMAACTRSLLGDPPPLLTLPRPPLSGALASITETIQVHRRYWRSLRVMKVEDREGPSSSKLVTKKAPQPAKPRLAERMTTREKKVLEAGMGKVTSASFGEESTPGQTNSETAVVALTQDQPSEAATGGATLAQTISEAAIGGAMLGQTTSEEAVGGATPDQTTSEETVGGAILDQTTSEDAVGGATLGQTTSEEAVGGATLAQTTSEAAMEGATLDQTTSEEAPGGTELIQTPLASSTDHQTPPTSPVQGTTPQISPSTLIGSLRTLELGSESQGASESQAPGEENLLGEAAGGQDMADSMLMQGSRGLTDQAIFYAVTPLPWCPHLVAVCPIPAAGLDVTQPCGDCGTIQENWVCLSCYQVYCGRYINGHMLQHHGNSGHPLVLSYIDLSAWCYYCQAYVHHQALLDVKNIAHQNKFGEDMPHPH

[6] = system: HeLa nuclear HDACs; experiment: HDAC inhibition assay, HeLa nuclear extract (mixture of class I HDACs 1, 2, and 3); conditions: read-out: IC50 HeLa nuclear HDACs, Boc-Lys-(AMC) substrate
[7] = system: SCC2095 cells; experiment: Western blotting of caspase- and HDAC-related proteins; type: cell-based, human; conditions: SCC2095, DNA damage biomarker, western blot
Procedure: The protein expression was performed as previously described. Proteins were resolved on 10% SDS-PAGE, then transferred to PVDF (Bio-Rad) membranes. After blocking with 5% skimmed milk in PBS containing 0.1% Tween 20, the membranes were probed with primary antibodies against interest target proteins at 4 °C overnight. The following primary antibodies were used: […], cleaved caspase 9, acetyl α-tubulin, Hsp90, Histone H2A.X, p38, p-^180Thr/^182Tyr p38, PPARγ, and p21 were purchased from Cell Signalling Technologies (Beverly, MA, USA); pro-caspase 8, Millipore; β-actin, Sigma-Aldrich (St. Louis, MO, USA). Then, the immunoblots were washed and exposed to HRP-conjugated secondary antibodies at room temperature for 1 h. The immunoblots were examined by enhanced chemiluminescence.

[8] = system: SCC2095 cells; experiment: ROS determination by flow cytometry (DCFH-DA probe); type: cell-based, human; conditions: SCC2095, 12 h or 24 h
Procedure: Cells (2 × 10^5) were treated with tested compounds in 6-well plates for 24 h or 48 h, then washed with ice-cold PBS twice and harvested with trypsin. Cells were incubated with 5 µL Annexin V- FITC/PI (BD Pharmingen, San Diego) for 15 min in the dark condition. Then, the cells were measured by BD FACSCanto flow cytometer (BD, Franklin Lakes, NJ). For ROS determination, DMSO or H2O2 or compound 7 g-treated cells were stained with the ROS probe (DCFH-DA; 5 µM) and detected the DCFH-DA fluorescence.

Chain of HDAC9 (Q9UKV0 whole entry): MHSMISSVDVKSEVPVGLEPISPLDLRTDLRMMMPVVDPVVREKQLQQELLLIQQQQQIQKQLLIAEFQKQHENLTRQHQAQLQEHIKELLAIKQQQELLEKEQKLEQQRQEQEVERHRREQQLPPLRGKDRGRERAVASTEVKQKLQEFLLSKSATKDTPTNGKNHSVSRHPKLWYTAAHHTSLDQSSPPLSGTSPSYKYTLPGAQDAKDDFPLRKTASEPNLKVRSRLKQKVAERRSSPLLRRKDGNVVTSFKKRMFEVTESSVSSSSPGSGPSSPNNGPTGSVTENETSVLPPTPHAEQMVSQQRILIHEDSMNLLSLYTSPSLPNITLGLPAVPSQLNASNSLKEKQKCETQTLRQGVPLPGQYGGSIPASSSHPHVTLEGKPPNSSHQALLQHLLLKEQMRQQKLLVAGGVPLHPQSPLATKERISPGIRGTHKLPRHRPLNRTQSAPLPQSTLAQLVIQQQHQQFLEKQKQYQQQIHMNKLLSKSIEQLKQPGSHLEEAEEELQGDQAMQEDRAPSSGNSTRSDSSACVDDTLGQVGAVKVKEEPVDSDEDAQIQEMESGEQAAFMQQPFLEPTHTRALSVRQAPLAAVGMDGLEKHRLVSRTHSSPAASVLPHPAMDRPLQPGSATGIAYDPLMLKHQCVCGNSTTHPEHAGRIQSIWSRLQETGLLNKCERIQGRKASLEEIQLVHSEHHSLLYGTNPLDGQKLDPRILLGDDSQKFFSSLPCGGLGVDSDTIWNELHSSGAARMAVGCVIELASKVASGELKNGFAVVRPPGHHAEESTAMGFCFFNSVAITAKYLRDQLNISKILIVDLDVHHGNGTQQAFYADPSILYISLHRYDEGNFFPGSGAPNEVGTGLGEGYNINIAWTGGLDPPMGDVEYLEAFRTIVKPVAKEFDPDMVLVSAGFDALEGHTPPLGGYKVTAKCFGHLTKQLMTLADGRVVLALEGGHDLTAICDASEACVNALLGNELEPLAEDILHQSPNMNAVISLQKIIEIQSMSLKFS
Chain of HDAC4 (P56524 whole entry): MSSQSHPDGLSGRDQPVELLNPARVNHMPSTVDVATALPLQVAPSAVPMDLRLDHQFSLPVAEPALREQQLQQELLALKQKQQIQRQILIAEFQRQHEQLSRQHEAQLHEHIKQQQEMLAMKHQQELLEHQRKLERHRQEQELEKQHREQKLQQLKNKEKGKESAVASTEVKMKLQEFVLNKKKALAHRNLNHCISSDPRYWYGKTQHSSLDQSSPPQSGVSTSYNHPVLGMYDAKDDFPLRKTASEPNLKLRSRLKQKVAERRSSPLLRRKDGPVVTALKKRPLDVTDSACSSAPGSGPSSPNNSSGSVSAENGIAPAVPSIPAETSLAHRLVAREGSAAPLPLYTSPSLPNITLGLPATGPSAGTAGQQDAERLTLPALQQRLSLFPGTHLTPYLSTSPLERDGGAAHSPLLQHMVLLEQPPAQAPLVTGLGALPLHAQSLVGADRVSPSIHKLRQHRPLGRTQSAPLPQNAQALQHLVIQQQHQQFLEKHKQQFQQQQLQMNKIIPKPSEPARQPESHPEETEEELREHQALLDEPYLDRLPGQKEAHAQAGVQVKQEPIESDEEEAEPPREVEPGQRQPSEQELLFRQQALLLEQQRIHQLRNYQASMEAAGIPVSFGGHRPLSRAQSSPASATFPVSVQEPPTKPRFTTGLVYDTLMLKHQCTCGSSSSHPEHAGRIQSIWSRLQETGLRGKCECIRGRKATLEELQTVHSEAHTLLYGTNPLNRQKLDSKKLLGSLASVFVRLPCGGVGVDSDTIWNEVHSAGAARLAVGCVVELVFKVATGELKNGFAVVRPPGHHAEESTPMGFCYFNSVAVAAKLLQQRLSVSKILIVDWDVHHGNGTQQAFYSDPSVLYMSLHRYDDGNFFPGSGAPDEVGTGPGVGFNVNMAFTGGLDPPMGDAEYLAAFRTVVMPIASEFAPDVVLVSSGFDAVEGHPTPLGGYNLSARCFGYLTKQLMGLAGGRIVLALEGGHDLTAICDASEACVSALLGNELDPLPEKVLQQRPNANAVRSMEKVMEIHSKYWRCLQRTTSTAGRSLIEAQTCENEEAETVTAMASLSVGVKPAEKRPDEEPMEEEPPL

`O=C(NO)c1ccc(CN2c3ccccc3Sc3ccc(Cl)cc32)cc1-c1ccccc1` [Compound 7b, N-Hydroxy-4-[(2-chloro-10H-phenothiazin-10-yl)methyl]-2-phenylbenzamide] gave an IC50 ([1]; Homo sapiens) of 5 µM, an IC50 [2] of 0.28 ± 0.03 µM and an IC50 [3] of 0.23 ± 0.02 µM. For the same molecule, the IC50 [4] was 0.2 ± 0.01 µM, the IC50 [5] was 2.12 ± 0.37 µM and the IC50 [6] was over 40 µM.
Molecule `COc1cc(-c2cc(CN3c4ccccc4Sc4ccc(C#N)cc43)ccc2C(=O)NO)cc(OC)c1OC` [Compound 19a, N-Hydroxy-4-[(2-cyano-10H-phenothiazin-10-yl)methyl]-2–(3,4,5-trimethoxyphenyl)benzamide] has an IC50 ([1]; Homo sapiens) of 7.6 µM, an IC50 [2] of over 40 µM and an IC50 [3] of 17.9 ± 0.92 µM. The IC50 [4] was 18.6 ± 0.96 µM, the IC50 [5] was 7.6 ± 0.36 µM and the IC50 [6] was over 40 µM.
`CC(=NO)c1ccc2c(c1)N(Cc1ccc(C(=O)NO)c(-c3ccccc3)c1)c1ccccc1S2` [Compound 7f, N-Hydroxy-4-{2-[1-(hydroxyimino)ethyl]-10H-phenothiazin-10-yl}methyl-2-phenylbenzamide] was tested, and the IC50 ([1]; Homo sapiens) was 4.6 µM, the IC50 [2] was 0.58 ± 0.07 µM and the IC50 [3] was 0.41 ± 0.02 µM. The IC50 [4] was 0.32 ± 0.07 µM, the IC50 [5] was 1.61 ± 0.09 µM and the IC50 [6] was over 40 µM.
`O=C(NO)c1ccc(CN2CCCc3ccccc3C2)cc1-c1ccccc1` [Compound 7j, N-Hydroxy-4-[(1,3,4,5-tetrahydro-2H-benzo[c]azepin-2-yl)methyl]-2-phenylbenzamide] showed an IC50 ([1]; Homo sapiens) of over 10 µM, an IC50 [2] of 0.91 ± 0.07 µM and an IC50 [3] of 0.84 ± 0.03 µM. It also gave an IC50 [4] of 0.95 ± 0.05 µM, an IC50 [5] of 18.22 ± 0.02 µM and an IC50 [6] of over 40 µM.
Molecule `COc1ccc(-c2cc(CN3c4ccccc4Sc4ccc(C#N)cc43)ccc2C(=O)NO)cc1` [Compound 19b, N-Hydroxy-4-[(2-cyano-10H-phenothiazin-10-yl)methyl]-2–(4-methoxyphenyl)benzamide] has an IC50 ([1]; Homo sapiens) of 1.8 µM, an IC50 [2] of 6.28 ± 0.13 µM and an IC50 [3] of 4.03 ± 0.16 µM. The IC50 [4] was 5.34 ± 0.4 µM, the IC50 [5] was 4.03 ± 0.25 µM and the IC50 [6] was over 40 µM.
With `COc1cc([C@@H]2c3cc4c(cc3[C@@H](O[C@@H]3O[C@@H]5CO[C@@H](C)O[C@H]5[C@H](O)[C@H]3O)[C@H]3COC(=O)[C@H]23)OCO4)cc(OC)c1O` [Etoposide, reference compound] the IC50 ([1]; Homo sapiens) was 3.3 ± 0.5 µM and the IC50 [1] was 2.3 µM.
For `O=C(NCC1(c2nc(-c3ccccc3)cs2)CCOCC1)c1cccc(-c2noc(C(F)(F)F)n2)c1` [TMP269, reference compound], the IC50 ([1]; Homo sapiens) was 18.1 ± 3.8 µM, the “phosphorylation of Histone H2A.X” value [7] was “increased” and the ROS generation [8] was “increased”.
`O=C(NO)c1ccc(CN2c3ccccc3Sc3ccc(C(F)(F)F)cc32)cc1-c1ccccc1` [Compound 7c, N-Hydroxy-4-{[2-(trifluoromethyl)-10H-phenothiazin-10-yl]methyl}-2-phenylbenzamide] showed an IC50 ([1]; Homo sapiens) of 6 µM, an IC50 [2] of 0.28 ± 0.04 µM and an IC50 [3] of 0.23 ± 0.05 µM. It also gave an IC50 [4] of 0.27 ± 0.02 µM, an IC50 [5] of 3.19 ± 0.11 µM and an IC50 [6] of over 40 µM.
`N#Cc1ccc2c(c1)N(Cc1ccc(C(=O)NO)c(-c3ccc(F)cc3)c1)c1ccccc1S2` [Compound 19c, N-Hydroxy-4-[(2-cyano-10H-phenothiazin-10-yl)methyl]-2–(4-fluorophenyl)benzamide] was tested, and the IC50 ([1]; Homo sapiens) was 2.6 µM, the IC50 [2] was 1 ± 0.03 µM and the IC50 [3] was 0.54 ± 0.06 µM. The IC50 [4] was 0.72 ± 0.03 µM, the IC50 [5] was 4.22 ± 0.18 µM and the IC50 [6] was over 40 µM.
With `O=C(NO)c1ccc(CN2c3ccccc3Sc3ccccc32)cc1-c1ccccc1` [Compound 7a, N-Hydroxy-4-[(10H-phenothiazin-10-yl)methyl]-2-phenylbenzamide] the IC50 ([1]; Homo sapiens) was 3.9 µM, the IC50 [2] was 0.48 ± 0.04 µM and the IC50 [3] was 0.71 ± 0.01 µM. For the same molecule, the IC50 [4] was 0.42 ± 0.06 µM, the IC50 [5] was 3.2 ± 0.77 µM and the IC50 [6] was over 40 µM.
`O=C(NO)c1ccc(CNC23CC4CC(CC(C4)C2)C3)cc1-c1ccccc1` [Compound 7i, N-Hydroxy-4-[(adamantan-1-ylamino)methyl]-2-phenylbenzamide] was tested, and the IC50 ([1]; Homo sapiens) was over 10 µM, the IC50 [2] was 18.7 ± 2.16 µM and the IC50 [3] was 12.9 ± 2.14 µM. For the same molecule, the IC50 [4] was 23.7 ± 4.14 µM, the IC50 [5] was over 40 µM and the IC50 [6] was over 40 µM.
`COc1ccc2c(c1)N(Cc1ccc(C(=O)NO)c(-c3ccccc3)c1)c1ccccc1S2` [Compound 7d, N-Hydroxy-4-[(2-methoxy-10H-phenothiazin-10-yl)methyl]-2-phenylbenzamide] was tested, and the IC50 ([1]; Homo sapiens) was 3.2 µM, the IC50 [2] was 0.8 ± 0.01 µM and the IC50 [3] was 0.71 ± 0.12 µM. It also gave an IC50 [4] of 0.64 ± 0.08 µM, an IC50 [5] of 3.68 ± 0.41 µM and an IC50 [6] of over 40 µM.
Work on `NC(=O)c1ccc2c(c1)N(Cc1ccc(C(=O)NO)c(-c3ccccc3)c1)c1ccccc1S2` [Compound 7h] yielded an IC50 ([1]; Homo sapiens) of 3.6 µM, an IC50 [2] of 0.2 ± 0.05 µM and an IC50 [3] of 0.16 ± 0.01 µM. The IC50 [4] was 0.11 ± 0.01 µM, the IC50 [5] was 0.75 ± 0.06 µM and the “HDAC6 inhibitory activity, fold less potent than LH4f” value ([5]; versus LH4f) was 150 fold. It also gave an IC50 [6] of over 40 µM.
